Test results reported in ChEMBL document CHEMBL1201862, “PubChem BioAssay data set” (2004).
Calls of active or inactive are those of the source. Rule as the data show it, for most assays here: actives have a measured EC50 and inactives only a lower limit.

Columns and labels:
[1] = biological target: T1, Heat shock factor protein 1 (Mus musculus, UniProt P38532); assay: inhibition of MG132-induced HSE-luciferase signal, confirmation, cell-based, NIH3T3, luminescence, dose retest (AID 2382); format: functional;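 also: NIH3T3 fibroblasts with HSF1-driven luciferase reporter stressed by proteasome inhibitor MG132; luminescence from HSF1-driven luciferase expression after 8 hours of MG132 stress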
T1 sequence (P38532 whole entry): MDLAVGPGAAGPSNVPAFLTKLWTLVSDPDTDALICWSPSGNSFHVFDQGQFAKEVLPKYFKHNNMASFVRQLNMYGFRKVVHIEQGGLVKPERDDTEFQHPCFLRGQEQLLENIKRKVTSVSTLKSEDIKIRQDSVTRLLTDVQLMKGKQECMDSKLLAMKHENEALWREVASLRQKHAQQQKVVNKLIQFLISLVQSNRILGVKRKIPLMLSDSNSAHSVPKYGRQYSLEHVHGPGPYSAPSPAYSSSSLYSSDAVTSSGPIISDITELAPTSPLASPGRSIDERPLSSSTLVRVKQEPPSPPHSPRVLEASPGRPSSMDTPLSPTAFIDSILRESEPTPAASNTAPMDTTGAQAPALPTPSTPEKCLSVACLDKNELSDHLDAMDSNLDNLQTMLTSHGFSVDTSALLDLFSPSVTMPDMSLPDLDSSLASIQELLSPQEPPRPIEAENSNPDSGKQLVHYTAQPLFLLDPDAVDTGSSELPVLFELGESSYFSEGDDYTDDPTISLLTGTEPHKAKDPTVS

[2] = biological target: Cytochrome P450 2D6 (Homo sapiens, UniProt P10635);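 also: CYP2D6 member of a cytochrome P450 panel assay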
[3] = biological target: Cytochrome P450 2C9 (Homo sapiens, UniProt P11712)
[4] = HEp-2 cell cytotoxicity, dose response, cytotoxicity control for RSV inhibitor project, HTS (AID 2410); format: functional; conditions: human respiratory syncytial virus
[5] = inhibitors of intracellular T. cruzi replication, confirmation, NIH3T3 host cells, beta-gal luminescence (AID 2044); format: functional, cell-based;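 also: intracellular parasites grown in NIH/3T3 mouse fibroblasts as host cells; luminescent beta-galactosidase reporter signal from transgenic T. cruzi replicating inside host cells; inhibitors lower the luminescence signal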
[6] = cytotoxicity toward NIH3T3 fibroblasts, dose response, counter-screen, cell-based, ATP luminescence, mouse fibroblasts (AID 2010); format: functional;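 also: cells exposed to compound for about 90 hours before reading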
[7] = test system: Streptococcus sp. 'group A'; assay: growth inhibition of control SK(-) GAS strain, dose response, counter-screen for streptokinase expression inhibitor project, luminescence, kanamycin, BacTiterGlo, confirmation (AID 1900); format: functional, organism-based
[8] = test system: Streptococcus; assay: Group A Streptococcus viability loss, dose response, counter-screen for streptokinase expression inhibitor project, luminescence, BacTiterGlo (AID 1915); format: functional, organism-based;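 also: potency for reduction of bacterial viability or growth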

Chain of Cytochrome P450 2C9 (P11712 whole entry): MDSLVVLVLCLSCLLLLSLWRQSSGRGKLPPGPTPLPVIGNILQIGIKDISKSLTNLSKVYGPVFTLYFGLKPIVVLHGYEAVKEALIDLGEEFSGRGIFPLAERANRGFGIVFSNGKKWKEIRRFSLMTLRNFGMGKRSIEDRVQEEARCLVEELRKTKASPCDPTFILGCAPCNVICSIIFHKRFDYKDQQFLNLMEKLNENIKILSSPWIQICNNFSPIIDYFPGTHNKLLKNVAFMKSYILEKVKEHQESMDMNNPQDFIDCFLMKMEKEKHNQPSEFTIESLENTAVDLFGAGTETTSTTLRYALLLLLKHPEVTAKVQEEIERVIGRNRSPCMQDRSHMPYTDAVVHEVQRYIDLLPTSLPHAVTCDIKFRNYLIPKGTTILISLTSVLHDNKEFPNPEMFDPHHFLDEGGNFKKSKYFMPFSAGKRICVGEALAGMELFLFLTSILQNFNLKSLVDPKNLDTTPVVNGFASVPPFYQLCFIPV
Chain of Cytochrome P450 2D6 (P10635 whole entry): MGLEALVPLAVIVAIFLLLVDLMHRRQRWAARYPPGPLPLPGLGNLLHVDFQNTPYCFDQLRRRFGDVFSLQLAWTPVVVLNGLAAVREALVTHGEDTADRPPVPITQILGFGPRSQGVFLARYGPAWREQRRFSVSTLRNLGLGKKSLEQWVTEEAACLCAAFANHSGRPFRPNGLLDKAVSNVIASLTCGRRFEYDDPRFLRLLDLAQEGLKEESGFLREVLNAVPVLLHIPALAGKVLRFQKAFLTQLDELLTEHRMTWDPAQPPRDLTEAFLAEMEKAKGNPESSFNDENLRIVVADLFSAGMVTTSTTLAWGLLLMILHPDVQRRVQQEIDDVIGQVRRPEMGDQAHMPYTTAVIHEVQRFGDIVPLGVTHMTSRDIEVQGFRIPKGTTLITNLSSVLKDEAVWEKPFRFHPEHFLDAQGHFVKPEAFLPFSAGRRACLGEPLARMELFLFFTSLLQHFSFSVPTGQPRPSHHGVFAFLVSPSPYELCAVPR

## N#Cc1cccc(C#N)c1Oc1ccc(S(=O)(=O)Nc2ccc(Cl)cc2)cc1
[1]
  EC50: > 195 µM (not active)

## O=C(c1ccccc1Nc1ccc(SC(F)F)cc1)N1CCCCC1
[2]
  AC50: 1.12 µM (inconclusive)
[3]
  AC50: 2.82 µM (inconclusive)

## CS(=O)(=O)Nc1cccc(-c2ccc3ncnc(NCc4cccs4)c3c2)c1
[3]
  AC50: 0.501 µM (inconclusive)

## COc1cccc(C(=O)Nc2cccc(-c3ccccc3)c2)c1
[4]
  CC50: 29.6 µM (active)

## O=C(C(NS(=O)(=O)c1cccs1)c1ccccc1)N1CCN(c2ccccc2)CC1 (stereo unspecified)
[2]
  AC50: 25.1 µM (inconclusive)

## Cn1c(=O)c2c(nc(Oc3cccc(O)c3)n2C)n(C)c1=O
[1]
  EC50: > 195 µM (not active)

## Cn1c(/C=C/c2ccccc2)nc2ccccc2c1=O
[1]
  EC50: > 195 µM (not active)

## COc1ccc(Cn2nnc3c(O)nc(C4CCN(S(=O)(=O)c5ccc(C)cc5)CC4)nc32)cc1
[4]
  CC50: 15.7 µM (active)

## COc1cc(C(C(=O)NCc2ccccc2)N(Cc2ccco2)C(=O)c2cnccn2)cc(OC)c1OC (stereo unspecified)
[1]
  EC50: > 195 µM (not active)

## O=C(Oc1ccccc1)N1CCC[C@@]2(CCN(c3ccccn3)C2)C1
[3]
  AC50: 39.8 µM (inconclusive)

## Clc1ccc(-n2cccc2CN2CCc3c([nH]c4ccccc34)C2c2ccccn2)nc1 (stereo unspecified)
[4]
  CC50: 25.1 µM (active)

## Cc1occc1-c1nc(-c2ccncc2)no1
[4]
  CC50: 39.6 µM (active)

## Cn1nc(C(F)(F)F)c(C(=O)Nc2ccc(F)cc2F)c1Sc1ccc(C(F)(F)F)cc1
[2]
  AC50: 14.1 µM (inconclusive)

## CC(=O)N1CCC[C@@]2(CCN(c3ncccn3)C2)C1
[2]
  AC50: 15.8 µM (inconclusive)

## Clc1cccc(/C=N\C=N/c2cccc(Cl)c2)c1
[2]
  AC50: 25.1 µM (inconclusive)

## COc1ccc(Cn2nnnc2C(c2cc3cccc(C)c3nc2O)N2CCN(C)CC2)cc1 (stereo unspecified)
[1]
  EC50: > 195 µM (not active)

## O=C(c1ccncc1)N1CCC2(CCCN(c3ccc(-c4ccccc4)cc3)C2)CC1
[2]
  AC50: 12.6 µM (inconclusive)

## CNCCCCOc1ccc(C(C)(C)C)cc1Cl
[5]
  EC50: 0.834 µM (active)
[6]
  EC50: 9.37 µM (active)

## CC(C)OCCCn1c(NN)nc2ccccc2c1=O
[1]
  EC50: > 195 µM (not active)

## CCc1cccc(Nc2c([N+](=O)[O-])cc(C(=O)N3CC(=O)Nc4ccccc43)cc2[N+](=O)[O-])c1
[5]
  EC50: 1.1 µM (active)
[6]
  EC50: > 30 µM (not active)

## C=CCSc1nc(N)cc(O)n1
[1]
  EC50: > 195 µM (not active)

## O=C(O)CCn1cc(/C=C2\NC(=S)N(c3ccccc3)C2=O)c(-c2ccc(Br)cc2)n1
[1]
  EC50: > 195 µM (not active)

## CCC(C(=O)NC(C)(C)C)N(Cc1ccc(F)cc1)C(=O)c1snc(C(N)=O)c1N (stereo unspecified)
[1]
  EC50: > 195 µM (not active)

## COc1cccc(Cn2c(=O)c(-c3cc(F)cc(F)c3)nc3cnc(OC)nc32)c1
[3]
  AC50: 3.16 µM (inconclusive)

## COCCNC(=O)CCc1nnc(C2(c3ccc(Cl)cc3)CCC2)o1
[1]
  EC50: > 195 µM (not active)

## CC1CCCN(S(=O)(=O)c2ccc(Br)s2)C1 (stereo unspecified)
[1]
  EC50: > 195 µM (not active)

## CCCCCCCC(=O)NNC(=O)c1c(O)c2ccccc2n(CCC)c1=O
[7]
  EC50: 2.67 µM (active)
[8]
  EC50: 4.91 µM (active)

## COC(=O)C(O)(c1ccc(NC(=S)NC(=O)c2ccc(Cl)cc2Cl)cc1)C(F)(F)F (stereo unspecified)
[4]
  CC50: > 50 µM (active)

## CCN(CC)CCn1c(=N)n(CCOc2ccccc2)c2ccccc21
[5]
  EC50: 1.43 µM (active)

## Cn1c(=O)c(-c2cccc(Cl)c2)nc2cncnc21
[3]
  AC50: 39.8 µM (inconclusive)

## Cc1cccc(CNc2ccnc(-c3ccoc3)n2)c1
[2]
  AC50: 31.6 µM (inconclusive)

## CN1CCc2c(cc(O)c(O)c2Cl)[C@H](c2cccc(Cl)c2)C1
[2]
  AC50: 31.6 µM (inconclusive)

## Cn1nc([N+](=O)[O-])nc1Oc1ccccc1
[5]
  EC50: 0.459 µM (active)
[6]
  EC50: > 60 µM (not active)

## O=C(Nc1ccc(Cl)cn1)c1ccc2c(Cl)c3c(nc2c1)CCC3
[1]
  EC50: 22.5 µM (active)

## Cc1nn(Cc2cccc(C(=O)Nc3ccn(Cc4c(F)c(F)cc(F)c4F)n3)c2)c(C)c1[N+](=O)[O-]
[4]
  CC50: 23.8 µM (active)
[5]
  EC50: 0.882 µM (active)
[6]
  EC50: > 60 µM (not active)

## CCN(CC)CCCN/C(C)=C1\C(=O)NC(=O)N(C2CCCCC2)C1=O
[5]
  EC50: 0.35 µM (active)
[6]
  EC50: > 60 µM (not active)

## CCN1c2nc3c(C)cccn3c(=O)c2CC2(C(=O)N(C)C(=O)N(C)C2=O)C1C (stereo unspecified)
[1]
  EC50: > 195 µM (not active)

## O=[N+]([O-])c1ccc(N2CCN(Cc3ccc4c(c3)OCO4)CC2)nc1
[1]
  EC50: > 195 µM (not active)

## COc1ccc(Nc2nc(-c3cccs3)nc3ccccc23)cc1S(=O)(=O)N1CCOCC1
[4]
  CC50: 17.1 µM (active)
[5]
  EC50: 1.25 µM (active)
[6]
  EC50: 10.1 µM (active)

## CN(C)C(=O)N1CCC(C(=O)NCc2ccc(F)cc2Cl)CC1
[1]
  EC50: > 195 µM (not active)

## Cn1nc(-c2ccc(Cl)cc2)cc1NC(=O)Nc1ccccc1
[4]
  CC50: > 50 µM (active)

## CC(NC(=O)c1ccccc1Br)c1ccc2c(c1)CCCC2 (stereo unspecified)
[4]
  CC50: 21.5 µM (active)

## CCN(CC)CCNc1cc(C)c(C#N)c2nc3ccccc3n12
[5]
  EC50: 1.09 µM (active)
[6]
  EC50: > 60 µM (not active)

## COc1ccc(CC(=O)Nc2cc(C)on2)cc1
[1]
  EC50: > 195 µM (not active)

## CCOc1cc(-n2ncc(C#N)c2N)nc(SC)n1
[4]
  CC50: 17.1 µM (active)

## CCOC(=O)C1=C(C)N(CCC(=O)O)C(=O)NC1c1ccccc1Cl (stereo unspecified)
[1]
  EC50: > 195 µM (not active)

## CN(C)Cc1cc(O)c(O)c(CN(C)C)c1
[3]
  AC50: 7.94 µM (inconclusive)

## Cc1ccc(/C(C#N)=C\c2cn(C)c3ccccc23)cc1
[4]
  CC50: 33.5 µM (active)

## CS(=O)(=O)N1CCc2cc(-c3csc(NC(=O)C(c4ccccc4)c4ccccc4)n3)ccc21
[5]
  EC50: 1.45 µM (active)
[6]
  EC50: > 60 µM (not active)

## C[n+]1c(/C=C/c2ccc3c(c2)OCO3)ccc2ccccc21
[1]
  EC50: 0.181 µM (active)

## O=S(=O)(NCC(c1cccnc1)N1CCN(Cc2ccccc2)CC1)c1ccccc1 (stereo unspecified)
[5]
  EC50: 0.634 µM (active)
[6]
  EC50: > 60 µM (not active)

## FC(F)(F)c1ccccc1-c1nc(Nc2ccncc2)c2ccccc2n1
[3]
  AC50: 0.794 µM (inconclusive)

## CCC(C)c1ccccc1NC(=O)c1cc2cccc([N+](=O)[O-])c2[nH]1 (stereo unspecified)
[5]
  EC50: 1.35 µM (active)
[6]
  EC50: > 60 µM (not active)

## O=C(COc1ccccc1)NC1C(=O)N2C(C(=O)O)=C(Cl)CSC12 (stereo unspecified)
[7]
  EC50: 0.301 µM (active)
[8]
  EC50: 0.372 µM (active)

## COc1ccc(CNC(=O)C2CC(c3ccc(OC)cc3)=NO2)cc1 (stereo unspecified)
[2]
  AC50: 8.91 µM (inconclusive)

## Cc1cc(C(=O)NNS(=O)(=O)c2ccc(F)cc2)nn1C(C)(C)C
[1]
  EC50: > 195 µM (not active)

## COc1ccc(Cn2c(SC)nc3ccccc32)cc1[N+](=O)[O-]
[1]
  EC50: > 195 µM (not active)

## O=c1c(-c2ccc(F)cc2)nc2cnc(N3CCNCC3)nc2n1Cc1cccs1
[2]
  AC50: 20 µM (inconclusive)

## O=c1ccc2ccc(OCCOc3cccc(Cl)c3)cc2o1
[4]
  CC50: 42.4 µM (active)

## CC(C)OC(=O)C1=C2SCC(=O)N2C(N)=C(C#N)C1
[2]
  AC50: 25.1 µM (inconclusive)

## COC(=O)C(Cc1ccccc1)NC(=O)CNC(=O)c1sc2ccccc2c1Cl (stereo unspecified)
[1]
  EC50: > 195 µM (not active)

## COc1ccc(-c2cc(-c3ccccc3)nc(Cl)n2)cc1OC
[4]
  CC50: 19.1 µM (active)

## OC[C@@H]1O[C@@H](n2cnc3c(N[C@H]4CCC[C@@H]4O)ncnc32)[C@H](O)[C@H]1O
[2]
  AC50: 15.8 µM (inconclusive)

## CCCS(=O)(=O)N1CCCC(C(=O)NCCN2CCOCC2)C1 (stereo unspecified)
[3]
  AC50: 7.08 µM (inconclusive)

## Cc1ccc(-n2c(S)nnc2CNc2ccc(C)c(Cl)c2)cc1
[4]
  CC50: 27.7 µM (active)

## COC1(C[S+]([O-])c2ccccc2)CCN(CCc2c[nH]c3ccc(F)cc23)CC1 (stereo unspecified)
[2]
  AC50: 15.8 µM (inconclusive)
[3]
  AC50: 25.1 µM (inconclusive)

## O=C1NC(=O)C2(CCc3ccccc32)N1 (stereo unspecified)
[1]
  EC50: > 195 µM (not active)

## COc1ccc(/C=N/c2c(-c3ccc(OC)cc3)nc3n2CCS3)cc1
[1]
  EC50: > 195 µM (not active)

## CN1CCN(c2ccc([N+](=O)[O-])c(N/N=C3\CN4CCC3CC4)c2)CC1
[3]
  AC50: 0.01 µM (inconclusive)

## O=C(NCc1ccccc1Cl)C(=O)c1c[nH]c2ccccc12
[4]
  CC50: > 6.25 µM (active)

## O=C(NC(c1ccccc1)c1cc(Cl)c2cccnc2c1O)c1cccnc1 (stereo unspecified)
[7]
  EC50: 0.64 µM (active)
[5]
  EC50: 0.488 µM (active)
[6]
  EC50: > 60 µM (not active)
[8]
  EC50: 2.15 µM (active)

## C[C@H](NC[C@H](O)CP(=O)(O)Cc1ccccc1)c1ccc(Cl)c(Cl)c1
[3]
  AC50: 15.8 µM (inconclusive)
